According to article PMC8400806, “Discovery of Amide-Functionalized Benzimidazolium Salts as Potent α-Glucosidase Inhibitors” (Molecules, 2021):
“Also recorded” adds a separate entry of the source. Where a name gives a salt, the structure may show the parent alone. Read-outs that look alike come from different tables or passages of the source.

Legend:
[1] = molecular target: T1, α-glucosidase enzyme (Saccharomyces cerevisiae, UniProt P53341); test: biochemical; format: biochemical; conditions: for α-glucosidase inhibitory activity, in words: verbal rating in the SAR discussion
T1 construct: purchased Sigma-Aldrich, Munich, Germany
Protocol: The solution of the α-glucosidase enzyme (obtained from Saccharomyces cerevisiae (Sigma-Aldrich, Munich, Germany)) was prepared in phosphate buffer (pH 6.8, 100 mM). The synthesized compounds were dissolved in dimethyl sulfoxide (DMSO). […] Afterwards, 40 μL of 5 mM p-nitrophenyl-α-D-glucopyranoside (Sigma-Aldrich, Munich, Germany) was poured into each well and further incubated for an additional half-hour. […] Acarbose (Sigma-Aldrich, Munich, Germany) and DMSO were used as reference inhibitors and negative control, respectively. The tests were conducted in triplicate and percent inhibitions were calculated using the following formula: % Inhibition = [(A control − A sample)/A control] × 100 where ‘A’ stands for absorbance.
The IC50 values of the synthesized compounds and acarbose were also determined.

T1 sequence (P53341 whole entry): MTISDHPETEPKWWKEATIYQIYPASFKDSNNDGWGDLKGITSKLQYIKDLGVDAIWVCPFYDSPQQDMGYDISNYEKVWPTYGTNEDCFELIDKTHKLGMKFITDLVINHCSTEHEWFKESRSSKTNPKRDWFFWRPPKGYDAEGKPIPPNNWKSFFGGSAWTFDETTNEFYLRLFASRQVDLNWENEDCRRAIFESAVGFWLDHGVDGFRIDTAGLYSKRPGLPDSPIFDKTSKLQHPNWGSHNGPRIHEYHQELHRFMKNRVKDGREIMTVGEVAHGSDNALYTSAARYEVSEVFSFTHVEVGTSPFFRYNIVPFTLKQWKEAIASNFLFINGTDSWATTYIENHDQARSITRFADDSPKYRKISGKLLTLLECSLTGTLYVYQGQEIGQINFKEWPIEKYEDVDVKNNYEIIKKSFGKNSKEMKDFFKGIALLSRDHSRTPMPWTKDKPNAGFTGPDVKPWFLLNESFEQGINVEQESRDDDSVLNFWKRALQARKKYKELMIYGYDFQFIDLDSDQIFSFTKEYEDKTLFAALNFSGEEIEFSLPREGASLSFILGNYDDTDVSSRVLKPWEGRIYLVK

Row | Compound | IC50 [1] | melting point | α-glucosidase inhibitory activity, in words [1] | IC50 ([1]; S. cerevisiae enzyme 0.5 U/mL, phosphate buffer pH 6.8, 37 °C, triplicate, read-out: IC50 α-glucosidase inhibition) | α-glucosidase inhibitory potential, fold higher than the standard drug acarbose ([1]; from IC50 values versus acarbose)
1 | O=C(C[n+]1cn(Cc2ccccc2)c2ccccc21)Nc1cccc(Br)c1.[Br-] [Compound 9d, 1-Benzyl-3-[2-{(3-bromophenyl)amino}-2-oxoethyl]-1H-benzo[d]imidazol-3-ium bromide] | 171.11 ± 0.089 µM | 176 to 178 °C |  |  | 
2 | Cc1n(Cc2ccccc2)c2ccccc2[n+]1CC(=O)Nc1cccc(Cl)c1.[Br-] [Compound 10a, 1-Benzyl-3-[2-{(3-chlorophenyl)amino}-2-oxoethyl]-2-methyl-1H-benzo[d]imidazol-3-ium bromide] | 22 ± 0.04 µM | 210 to 213 °C |  |  | 
3 | COc1ccccc1NC(=O)C[n+]1c(C)n(Cc2ccccc2)c2ccccc21.[Br-] [Compound 10l, 1-Benzyl-3-[2-{(2-methoxyphenyl)amino}-2-oxoethyl]-2-methyl-1H-benzo[d]imidazol-3-ium bromide] | 25 ± 0.011 µM | 244 to 246 °C |  |  | 
4 | Cc1n(Cc2ccccc2)c2ccccc2[n+]1CC(=O)Nc1ccc(Cl)cc1.[Br-] [Compound 10b, 1-Benzyl-3-[2-{(4-chlorophenyl)amino}-2-oxoethyl]-2-methyl-1H-benzo[d]imidazol-3-ium bromide] | 60 ± 0.041 µM | 178 to 180 °C |  |  | 
5 | Cc1ccc(NC(=O)C[n+]2cn(Cc3ccccc3)c3ccccc32)cc1.[Br-] [Compound 9k, 1-Benzyl-3-{2-oxo-2-(p-tolylamino)ethyl}-1H-benzo[d]imidazol-3-ium bromide] | 201.13 ± 0.105 µM | 148 to 149 °C |  |  | 
6 | O=C(C[n+]1cn(Cc2ccccc2)c2ccccc21)Nc1cccc([N+](=O)[O-])c1.[Br-] [Compound 9g, 1-Benzyl-3-[2-{(3-nitrophenyl)amino}-2-oxoethyl]-1H-benzo[d]imidazol-3-ium bromide] | 215.73 ± 0.112 µM | 162 to 163 °C |  |  | 
7 | Cc1n(Cc2ccccc2)c2ccccc2[n+]1CC(=O)Nc1ccc(Br)cc1.[Br-] [Compound 10e, 1-Benzyl-3-[2-{(4-bromophenyl)amino}-2-oxoethyl]-2-methyl-1H-benzo[d]imidazol-3-ium bromide] | 30 ± 0.049 µM | 212 °C | higher activity than acarbose |  | 
8 | O=C(C[n+]1cn(Cc2ccccc2)c2ccccc21)Nc1cccc(Cl)c1.[Br-] [Compound 9a, 1-Benzyl-3-[2-{(3-chlorophenyl)amino}-2-oxoethyl]-1H-benzo[d]imidazol-3-ium bromide] | 150.7 ± 0.045 µM | 205 to 207 °C |  |  | 
9 | O=C(C[n+]1cn(Cc2ccccc2)c2ccccc21)Nc1ccccc1Br.[Br-] [Compound 9c, 1-Benzyl-3-[2-{(2-bromophenyl)amino}-2-oxoethyl]-1H-benzo[d]imidazol-3-ium bromide] | 70.01 ± 0.037 µM | 192 to 194 °C |  |  | 
10 | Cc1cccc(NC(=O)C[n+]2c(C)n(Cc3ccccc3)c3ccccc32)c1.[Br-] [Compound 10j, 1-Benzyl-2-methyl-3-{2-oxo-2-(m-tolylamino)ethyl}-1H-benzo[d]imidazol-3-ium bromide] | 60 ± 0.041 µM | 192 to 194 °C | poor inhibitors |  | 
11 | Cc1n(Cc2ccccc2)c2ccccc2[n+]1CC(=O)Nc1ccccc1Br [Compound 10c, 1-Benzyl-3-[2-{(2-bromophenyl)amino)}-2-oxoethyl]-2-methyl-1H-benzo[d]imidazol-3-ium bromide] | 46 ± 0.106 µM |  | higher activity than acarbose |  | 
12 | Cc1n(Cc2ccccc2)c2ccccc2[n+]1CC(=O)Nc1ccc([N+](=O)[O-])cc1 (as salt: bromide) [Compound 10h, 1-Benzyl-2-methyl-3-[2-{(4-nitrophenyl)amino)}-2-oxoethyl]-1H-benzo[d]imidazol-3-ium bromide] |  | 222 to 224 °C |  |  | 
13 | O=C(C[n+]1cn(Cc2ccccc2)c2ccccc21)Nc1ccc(Cl)cc1.[Br-] [Compound 9b, 1-Benzyl-3-[2-{(4-chlorophenyl)amino}-2-oxoethyl]-1H-benzo[d]imidazol-3-ium bromide] | 169.16 ± 0.023 µM | 197 to 198 °C |  |  | 
14 | Cc1n(Cc2ccccc2)c2ccccc2[n+]1CC(=O)Nc1ccccc1[N+](=O)[O-].[Br-] [Compound 10f, 1-Benzyl-2-methyl-3-[2-{(2-nitrophenyl)amino}-2-oxoethyl]-1H-benzo[d]imidazol-3-ium bromide] | 60 ± 0.025 µM |  | considerable decline in activity |  | 
15 | Cc1cccc(NC(=O)C[n+]2cn(Cc3ccccc3)c3ccccc32)c1.[Br-] [Compound 9j, 1-Benzyl-3-{2-oxo-2-(m-tolylamino)ethyl}-1H-benzo[d]imidazol-3-ium bromide] | 200.14 ± 0.039 µM | 132 to 134 °C |  |  | 
16 | Cc1ccccc1NC(=O)C[n+]1c(C)n(Cc2ccccc2)c2ccccc21.[Br-] [Compound 10i, 1-Benzyl-2-methyl-3-{2-oxo-2-(o-tolylamino)ethyl}-1H-benzo[d]imidazol-3-ium bromide] | 100 ± 0.048 µM | 168 to 170 °C | poor inhibitors; also recorded: lowest α-glucosidase inhibitory results in their respective series |  | 
17 | Cc1n(Cc2ccccc2)c2ccccc2[n+]1CC(=O)Nc1ccc([N+](=O)[O-])cc1 [Compound 10h, 1-Benzyl-2-methyl-3-[2-{(4-nitrophenyl)amino)}-2-oxoethyl]-1H-benzo[d]imidazol-3-ium bromide] | 17 ± 0.067 µM |  | promising α-glucosidase inhibitory results |  | 
18 | O=C(C[n+]1cn(Cc2ccccc2)c2ccccc21)Nc1ccc(Br)cc1 [Compound 9e, 1-Benzyl-3-[2-{(4-bromophenyl)amino)}-2-oxoethyl]-1H-benzo[d]imidazol-3-ium bromide] |  |  |  | 198 ± 0.103 µM | 
19 | COc1ccccc1NC(=O)C[n+]1cn(Cc2ccccc2)c2ccccc21.[Br-] [Compound 9l, 1-Benzyl-3-[2-{(2-methoxyphenyl)amino}-2-oxoethyl]-1H-benzo[d]imidazol-3-ium bromide] | 74.94 ± 0.028 µM | 188 to 189 °C |  |  | 
20 | O=C(C[n+]1cn(Cc2ccccc2)c2ccccc21)Nc1ccc([N+](=O)[O-])cc1.[Br-] [Compound 9h, 1-Benzyl-3-[2{(4-nitrophenyl)amino}-2-oxoethyl]-1H-benzo[d]imidazol-3-ium bromide] |  | 152 to 153 °C |  |  | 
21 | Cc1n(Cc2ccccc2)c2ccccc2[n+]1CC(=O)Nc1cccc(Br)c1.[Br-] [Compound 10d, 1-Benzyl-3-[2-{(3-bromophenyl)amino}-2-oxoethyl]-2-methyl-1H-benzo[d]imidazol-3-ium bromide] | 14 ± 0.013 µM | 242 °C | higher activity than acarbose |  | 4 fold
22 | Cc1n(Cc2ccccc2)c2ccccc2[n+]1CC(=O)Nc1ccccc1Br (as salt: bromide) [Compound 10c, 1-Benzyl-3-[2-{(2-bromophenyl)amino)}-2-oxoethyl]-2-methyl-1H-benzo[d]imidazol-3-ium bromide] |  | 252 °C |  |  | 
23 | Cc1n(Cc2ccccc2)c2ccccc2[n+]1CC(=O)Nc1cccc([N+](=O)[O-])c1.[Br-] [Compound 10g, 1-Benzyl-2-methyl-3-[2-{(3-nitrophenyl)amino}-2-oxoethyl]-1H-benzo[d]imidazol-3-ium bromide] | 19 ± 0.086 µM | 180 to 182 °C | promising α-glucosidase inhibitory results |  | 
24 | Cc1ccc(NC(=O)C[n+]2c(C)n(Cc3ccccc3)c3ccccc32)cc1.[Br-] [Compound 10k, 1-Benzyl-2-methyl-3-{2-oxo-2-(p-tolylamino)ethyl}-1H-benzo[d]imidazol-3-ium bromide] | 32.27 ± 0.05 µM | 220 to 221 °C | moderately active |  | 
25 | O=C(C[n+]1cn(Cc2ccccc2)c2ccccc21)Nc1ccccc1[N+](=O)[O-].[Br-] [Compound 9f, 1-Benzyl-3-[2-{(2-nitrophenyl)amino}-2-oxoethyl]-1H-benzo[d]imidazol-3-ium bromide] | 241 ± 0.027 µM | 142 to 143 °C |  |  | 
26 | COc1ccc(NC(=O)C[n+]2c(C)n(Cc3ccccc3)c3ccccc32)cc1.[Br-] [Compound 10m, 1-Benzyl-3-[2-{(4-methoxyphenyl)amino}-2-oxoethyl]-2-methyl-1H-benzo[d]imidazole-3-ium bromide] | 16.16 ± 0.026 µM | 235 to 238 °C |  |  | 
27 | Cc1ccccc1NC(=O)C[n+]1cn(Cc2ccccc2)c2ccccc21.[Br-] [Compound 9i, 1-Benzyl-3-{2-oxo-2-(o-tolylamino)ethyl}-1H-benzo[d]imidazol-3-ium bromide] | 259.86 ± 0.043 µM | 162 to 163 °C |  |  | 
28 | COc1ccc(NC(=O)C[n+]2cn(Cc3ccccc3)c3ccccc32)cc1.[Br-] [Compound 9m, 1-Benzyl-3-[2-{(4-methoxyphenyl)amino}-2-oxoethyl]-1H-benzo[d]imidazol-3-ium bromide] | 279.28 ± 0.03 µM | 171 to 173 °C | lowest α-glucosidase inhibitory results in their respective series |  | 
